How the values were obtained:
splenocytes = experiment: Antigen-recall T cell proliferation and cytokine production of splenocytes from SJL EAE mice; type: cell-based; conditions: therapy model; splenocytes restimulated with pPLP
Experimental: Cytokine assays. Splenocytes were cultured at 37° C. in 5% CO2 for 2-3 days with either soluble CD3-specific antibody (anti-CD3) (0.5 μg/ml) or MT (heat-killed M. tuberculosis, H37RA, DIFCO) (50 μg/ml) or peptides (pMOG, pPLP) (0-50 μg/ml as indicated). Cytokines were quantified in culture supernatants by ELISA; TNF-α, IL-6, and IFN-γ (BioLegend) and IL-17 (eBioscience). EAE induction, scoring, analysis and in vitro cell cultures. Peptide-induced EAE was induced in SJL mice and C57BL/6 mice as previously reported^11,20. Individual mice were observed daily and clinical scores were assessed on a 0-5 scale as follows: 0, no abnormality; 1, limp tail or hind limb weakness; 2, limp tail and hind limb weakness; 3, hind limb paralysis; 4, hind limb paralysis and forelimb weakness; and 5, moribund. […] Radioactive incorporation was counted using a flatbed β-counter (Wallac). […]

SJL mice = experiment: Prevention of EAE in SJL mice (treatment before immunization); type: in vivo
Experimental: Antibodies used for in vivo. Anti-CD4 (clone Gk1.5), anti-CD8 antibody (clone 53-6.72), anti-TGFβ antibody (clone ID11) and mouse IgG1 (clone MOPC-21) were purchased from Bio X cell. Anti-CD20 antibody (clone 5D2) was a gift from Genentech. T cell depletion studies in EAE disease models. For EAE prevention studies SJL/J mice were either untreated or treated with CD4− (100 μg/mouse) and CD8− (50 μg/mouse) specific antibody (T cell depletion antibody). Some mice were immediately injected i.p. with pPLP or pOVA (25 μg/mouse) or PBS every other day for 16 days. All mice were immunized with pPLP and CFA (day 0). For EAE treatment studies, SJL mice were treated with CD4- and CD8-specific antibody and 5 μg of pPLP, pOVA or PBS i.p. every other day from day 12 to day 26 following immunization with pPLP (day 0). For EAE prevention studies, SJL mice were treated with CD4- and CD8-specific antibody at day −21, and 25 μg of pPLP, pOVA or PBS i.p. every other day from day −18 to day −2 before immunization with pPLP (day 0). In C57BL/6 mice, same T cell depletion regimen was utilized but pMOG (10 μg mouse) was administered via i.p. In some mice, anti-TGFβ or isotype control antibody (mIgG1) (200 μg/mice each day) were injected i.p. one day after T cell depletion. […] Mice were monitored for clinical score of disease and sacrificed at indicated time points. […]

proteolipid protein peptide PLP139-151 (HSLGKWLGHPDKF; listed as Mus musculus)
pPLP-specific T cell proliferation and inflammatory cytokine production (splenocytes): no reduction | EAE clinical disease, prevention (SJL mice): failed to prevent EAE

Source: US20200261576A1, “APOPTOTIC CELL-MEDIATED INDUCTION OF ANTIGEN SPECIFIC REGULATORY T-CELLS FOR THE THERAPY OF AUTOIMMUNE DISEASES IN ANIMALS AND HUMANS” (The United States of America, as represented by the …, priority 2013, published 2020)
